Experimental data from patent US20260001946A1, “TREATMENT OF A DISEASE OR CONDITION IN A TISSUE ORIGINATING FROM THE ENDODERM” (BT Bidco, Inc., priority 2018, published 2026).
Structures can show the parent of a compound that is named as a salt. Where two headings read alike, the source gives them in different places. Blank lines part the entries; values can stand above or below the molecule they belong to.

What was measured:
[1] = Pharmacokinetics of oral vs intra-cecal tacrolimus: blood, rectal contents, GI tissue and luminal content (Example 13); parameters: species or system Yorkshire-Cross farm swine; details: in vivo
From the text: (§1) No further randomization procedure was employed.

[2] = female, Yorkshire-Cross, swine, in vivo, po, 0.09 mg/kg
Description: FIG. 76 is a graph showing the mean concentration of tacrolimus in the cecum tissue and the proximal colon tissue 12 hours after intracecal or oral administration of tacrolimus to swine as described in Example 10.
FIG. 79 is a graph showing the mean concentration of tacrolimus in the cecum tissue, the proximal colon tissue, the spiral colon tissue, the transverse colon tissue, and the distal colon tissue after intracecal (IC) or oral administration (PO) of tacrolimus in swine as described in Example 13. ****P<0.0001, ***P<0.001.
FIG. 90 is a graph showing the mean concentration of tacrolimus in the cecum, the proximal colon, the spiral colon, the transverse colon, and the distal colon of swine after intracecal (IC) or oral administration (PO) of tacrolimus as described in Example 10.

[3] = Tacrolimus blood concentration and AUC0-12 hours after IC or PO administration; details: female, Yorkshire-Cross, swine, in vivo
Description: FIG. 77 is a graph showing the mean concentration of tacrolimus in the blood 1 hour, 2 hours, 3 hours, 4 hours, 6 hours and 12 hours after intracecal (IC) or oral administration (PO) of tacrolimus to swine as described in Example 13.
FIG. 78 is a graph showing the AUC0-12 hours of tacrolimus in the blood after intracecal (IC) or oral administration (PO) of tacrolimus in swine as described in Example 13.
FIG. 87 is a graph showing the mean concentration of tacrolimus in the blood of swine 1 hour, 2 hours, 3 hours, 4 hours, 6 hours, and 12 hours after intracecal (IC) or oral administration (PO) of tacrolimus as described in Example 10.
FIG. 88 is a graph showing the AUC0-12 hours of tacrolimus in the blood of swine after intracecal (IC) or oral administration (PO) of tacrolimus as described in Example 10.

[4] = Tissue, plasma, rectal sample and GI content pharmacokinetics of tacrolimus, oral vs intra-cecal ingestible device (Example 10); parameters: species or system Yorkshire-Cross farm swine; details: in vivo
Description: The primary objective of this study was to compare the tissue, plasma, rectal sample, and GI content pharmacokinetics of tacrolimus through oral versus intra-cecal ingestible device delivery in normal Yorkshire-Cross farm swine.
as §1
Animals in Group 1 received an ingestible device containing 0.8 mL of vehicle solution (80% alcohol, 20% HCO-60). Animals in Group 2 received orally […] liquid formulation of tacrolimus at 4 mg/0.8 mL per animal (Prograf: 5 mg/mL). Animals in Group 3 received intra-cecally an ingestible device containing tacrolimus at 1 mg in 0.8 mL per ingestible device. Animals in Group 4 received intra-cecally an ingestible device containing tacrolimus at 2 mg in 0.8 mL per ingestible device. Animals in Group 5 received intra-cecally an ingestible device containing tacrolimus at 4 mg in 0.8 mL per ingestible device. To control for potential confounding effects of the surgery, all groups fast on Day −11 at least 24 hr before being subjected to anesthesia followed by surgical placements of a cecal port by a veterinary surgeon at Day −10. All animals were fasted for at least 12 hr prior to dosing on Day 1. Animals were dosed via either intra-cecal dosing (IC) or oral dosing (PO) at Day 1 (between 6-8 p.m.). All animals resumed feeding at approximately 4 hours after dose (11-12 p.m. after dosing).
Animals in Group 1 (Vehicle Control) were administered a single intra-cecal ingestible device containing 0.8 mL Vehicle solution (80% alcohol, 20% castor oil (HCO-60) on Day 1. On Day −10 the animals were anesthetized, and a veterinary surgeon surgically placed an intra-cecal port in each animal. On Day 1, each animal was placed into a sling then a single intra-cecal ingestible device containing 0.8 mL vehicle solution (80% alcohol, 20% castor oil (HCO-60)) is introduced by the veterinary surgeon into the cecum via the cecal port in each animal. Following ingestible device placement, the animals were removed from the slings and placed back into their pens with water. All animals resumed feeding at approximately 4 hours after dose. […] A total of 60 samples were collected.
Approximately 200˜400 mg of rectal content were collected, if available, with a fecal swab (Copan Diagnostics Nylon Flocked Dry Swabs, 502CS01). The fecal swab was pre-weighed and weighed after collection in the collection tube (Sterile Tube and Cap No Media, PFPM913S), and the sample weight was recorded. The fecal swab was broken via the breakpoint, and was stored in the collection tube, and immediately frozen at −70° C. […] Immediately following euthanasia, tissue was collected.
For tissue necropsy, small intestine fluid and cecal fluid were collected separately from all the animals into two separate square plastic bottles, and stored at −20° C. The length and diameter of the cecum and the colon was measured from one animal in each group and recorded for reference. Tissues were collected for pharmacokinetic analyses and include mesenteric lymph nodes, a Peyer's Patch, and five gastrointestinal sections, including cecum, proximal colon, transverse colon, distal colon, and rectum. All samples were weighed, and the tissue sample weights were recorded. […] Around 3 grams of the total punched sample were collected into a pre-weighed 15-mL conical tube, and the tissue weight was recorded. […]

[5] = system: IL-6, GM-CSF, IL-15, IL-2, IL-12, IL-13, TNF-α, INF-γ

concentration at 12 h ([1]; female, Yorkshire-Cross, swine, 0.02 mg/kg, Trough (12 hr)): 0.746 ± 0.038 ng/mL | concentration at 12 h ([1]; female, Yorkshire-Cross, swine, 0.04 mg/kg, Trough (12 hr)): 1.96 ± 0.491 ng/mL | concentration at 12 h ([1]; female, Yorkshire-Cross, swine, 0.09 mg/kg, Trough (12 hr)): 4.35 ± 0.561 ng/mL | Ratio Tissue(mean)/Trough(12 hr) ([1]; female, Yorkshire-Cross, swine, po, 0.09 mg/kg, 12 h): 0 | Kp at 12 h ([1]; female, Yorkshire-Cross, swine, po, 0.09 mg/kg, Ratio Tissue(mean)/Trough(12 hr)): 0 | concentration at 12 h ([1]; female, Yorkshire-Cross, swine, po, 0.09 mg/kg, Trough (12 hr)): 0.568 ± 0.291 ng/mL | concentration at 12 h ([1]; female, Yorkshire-Cross, swine, po, 0.09 mg/kg, Trough level (12 hr)): 0.568 ng/mL | mean concentration of tacrolimus in the spiral colon lumen, the transverse colon lumen, and the distal colon lumen [1]: statistically higher | mean concentration of tacrolimus in the spiral colon tissue and the transverse colon tissue [1]: statistically higher | mean concentration and AUC0-12 hours of tacrolimus in the blood ([1]; po, 0.09 mg/kg): higher | Tissue(mean) (ng/g)/AUG(0-12 hr) (ng · hr/mL) Ratio [2]: 0 | Tissue(mean) (ng/g)/AUG(0-12 hr) (ng · hr/mL) Ratio ([2]; 12 h): 0 | concentration at 12 h ([3]; 0.02 mg/kg): 0.746 ± 0.038 ng/mL | concentration at 12 h ([3]; 0.04 mg/kg): 1.96 ± 0.491 ng/mL | concentration at 12 h ([3]; 0.09 mg/kg): 4.35 ± 0.516 ng/mL | concentration at 12 h ([3]; po, 0.09 mg/kg): 0.568 ± 0.291 ng/mL | exposure AUC [4]: < 2000-12 ng·h/mL | mean concentration of tacrolimus in the cecum tissue and the proximate colon tissue [4]: higher | tissue (spiral and transverse colon) and luminal content (spiral, transverse, and distal colon) concentrations [4]: Significantly higher | level of tacrolimus in tissue ([4]; po): No measurable level | rectal content concentration ([4]; po): no detectable level
SMILES: C=CC[C@@H]1/C=C(\C)C[C@H](C)C[C@H](OC)[C@H]2O[C@@](O)(C(=O)C(=O)N3CCCC[C@H]3C(=O)O[C@H](/C(C)=C/[C@@H]3CC[C@@H](O)[C@H](OC)C3)[C@H](C)[C@@H](O)CC1=O)[C@H](C)C[C@@H]2OC [tacrolimus]

SMILES: C[C@@H]1CCN(C(=O)CC#N)C[C@@H]1N(C)c1ncnc2[nH]ccc12 [tofacitinib citrate]
IL-6 expression in plasma ([5]; PO or IC administration, 1 h and 3 h post-treatment): inhibition of IL-6 expression | inhibition of IL-6 expression in colon tissue ([5]; all IC treated groups and high dose PO group (45 mg/kg) (FIG. 112B)): sustained through 24 h post-dose | GM-CSF levels in plasma or colon tissue ([5]; between IC and PO treatment groups): nor was there a significant difference | IL-6 inhibition in colon tissue ([5]; low dose PO group (15 mg/kg), by 12 h post-dose): Recovery from IL-6 inhibition was observed
